Data reported in patent US11549123B2, “Plant EPSP synthases and methods of use” (PIONEER HI-BRED INTERNATIONAL, INC., priority 2015, dated 2023).
Numbering of substitutions follows the chain as printed.

Legend:
[1] = tested on: Type II EPSPS from Agrobacterium sp. strain CP4; details: read-out: KM for PEP; U.S. Pat. No. 5,633,435; cited from earlier work
[2] = target: EPSPS enzyme comprising 103I, 107S, and 445G (Zea mays, UniProt O24566, N444G/P106S/T102I); test: kcat/KM*KI of EPSPS comprising 103I, 107S, 445G; assay type: biochemical; details: glyphosate as inhibitor
Excerpt: The EPSPS polypeptides and active variants and fragments thereof disclosed herein may have improved catalytic capacity in the presence of glyphosate when compared to previously identified EPSPS polypeptides. The parameter that best indicates the fitness of this trait in vivo is kcat/KM*KI. The EPSPS polypeptides disclosed herein can have an increased kcat/KM*KI, when compared to previously known EPSPS enzymes. By “increase” is intended any statistically significant increase when compared to an appropriate control. In some embodiments, an appropriate control is a previously known EPSPS sequence, such as that set forth in SEQ ID NO:2 (maize), SEQ ID NO:7 (rice), SEQ ID NO:8 (sorghum), SEQ ID NO:9 (sunflower), SEQ ID NO:13 (soybean), SEQ ID NO:14 (wheat), SEQ ID NO:15 (Brassica rapa), SEQ ID NO:16 (tomato), or SEQ ID NO:17 (potato). In some embodiments, the increase in the kcat/KM*KI when compared to SEQ ID NO:2, 7, 8 9, 13, 14, 15, 16, or 17 can comprise about a 150, 200, 250, 300, 350, 400, 450, 500, 550, 600, 650, 700, 750, 800-fold or greater increase. In still further embodiments, kcat/KM*KI may include, for example, a kcat/KM*KI of more than about 2000, 2500, 3000, 3500, 4000, 4500, 5000, 5500, 6000, 6500, 7000, 7500, 8000, 8500, 9000, 9500, 10000, or more.

[3] = target: T1, Zea mays EPSPS variant Zm-H6 (868-H6) with K246G (H6-K246G) (Zea mays, UniProt O24566, A1R/A3W/A415G/A71Q/D401G/E301S/E390G/G101A/I207L/K245G/K83R/L97C/T278A/T360S/T440Q/V437R); test: Rapid two-rate method for (kcat/KM)*KI, H6-K246G; assay type: biochemical; details: [E] 0.07 uM, [Gly] 1000 uM
T1 construct: 868-H6 plus K246G; E. coli BL21(DE3), Ni-NTA purified
T1 sequence (O24566 with tags, fused parts or gaps A1R/A3W/A71Q/K83R/L97C/G101A/I207L/K245G/T278A/E301S/T360S/E390G/D401G/A415G/V437R/T440Q): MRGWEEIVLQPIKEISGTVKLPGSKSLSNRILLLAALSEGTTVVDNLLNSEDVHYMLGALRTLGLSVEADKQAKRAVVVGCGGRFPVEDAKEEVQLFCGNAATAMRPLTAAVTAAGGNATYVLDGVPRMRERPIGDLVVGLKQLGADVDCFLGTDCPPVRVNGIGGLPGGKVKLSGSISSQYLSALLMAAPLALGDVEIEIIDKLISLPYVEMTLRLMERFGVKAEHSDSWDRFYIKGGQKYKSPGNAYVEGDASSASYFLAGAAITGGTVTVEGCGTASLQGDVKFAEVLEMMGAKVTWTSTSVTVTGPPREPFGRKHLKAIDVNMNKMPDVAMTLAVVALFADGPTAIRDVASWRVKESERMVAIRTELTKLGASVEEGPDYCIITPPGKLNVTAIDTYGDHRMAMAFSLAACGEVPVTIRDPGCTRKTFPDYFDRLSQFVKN
Excerpt: There are several practical considerations for accurately estimating (kcat/KM)*KI with the rapid method. […] 2) The inhibitor concentration must be adjusted so as to obtain a degree of inhibition that minimally amplifies the error in the term v0-vi in Equation 3. If inhibition is too little, v0-vi will be small, and the error in the multiplier vi×v0/(v0-vi) will be large. […] 3) Substrate concentration should be set at the approximate KM of the parental variant(s), subject to the sensitivity of the assay. High substrate concentration obscures sensitivity to the inhibitor and reduces stringency for capturing improvements in KM. Depending on the necessity for speed, there exists opportunity for customizing enzyme and inhibitor concentrations. […] The rapid method was repeated for those and obtained data that correlated better with data obtained by substrate saturation analysis. For screening purposes however, that correlation step is not necessary. Conditions can be set so that variants with a pre-determined minimal fitness level are accurately quantified.
In Table 15, parameters above the heavy line for the rapid method were obtained under standard conditions. For variants shown below the heavy line, the rapid analysis was repeated with enzyme or glyphosate concentrations adjusted as needed to generate sufficient signal within the limits for linear initial rates.

[4] = target: T2, Zea mays EPSPS variant Zm-H6 (868-H6) with D196V (H6-D196V) (Zea mays, UniProt O24566, A1R/A3W/A415G/A71Q/D195V/D401G/E301S/E390G/G101A/I207L/K83R/L97C/T278A/T360S/T440Q/V437R); test: Substrate saturation kinetic analysis with glyphosate, H6-D196V; assay type: biochemical
T2 construct: shuffled variant 868-H6 plus D196V; E. coli BL21(DE3), Ni-NTA purified
T2 sequence (O24566 with tags, fused parts or gaps A1R/A3W/A71Q/K83R/L97C/G101A/D195V/I207L/T278A/E301S/T360S/E390G/D401G/A415G/V437R/T440Q): T1 sequence (O24566 with tags, fused parts or gaps A1R/A3W/A71Q/K83R/L97C/G101A/I207L/K245G/T278A/E301S/T360S/E390G/D401G/A415G/V437R/T440Q) with D196V, G246K

Chain of EPSPS enzyme comprising 103I, 107S, and 445G (O24566 entry or part of it T102I/P106S/N444G): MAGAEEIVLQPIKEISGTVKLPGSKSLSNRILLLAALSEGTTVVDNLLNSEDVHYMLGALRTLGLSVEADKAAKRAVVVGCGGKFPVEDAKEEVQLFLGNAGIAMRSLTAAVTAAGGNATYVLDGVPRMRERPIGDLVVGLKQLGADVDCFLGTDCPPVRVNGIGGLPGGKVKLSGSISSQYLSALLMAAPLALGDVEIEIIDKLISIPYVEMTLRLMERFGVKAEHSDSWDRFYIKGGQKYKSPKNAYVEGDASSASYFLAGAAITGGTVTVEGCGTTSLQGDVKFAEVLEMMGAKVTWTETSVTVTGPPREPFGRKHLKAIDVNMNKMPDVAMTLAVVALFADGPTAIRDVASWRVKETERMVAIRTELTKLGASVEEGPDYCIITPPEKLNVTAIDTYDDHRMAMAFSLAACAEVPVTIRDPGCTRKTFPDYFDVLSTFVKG

Compound	Km [1] [µM]	(kcat/KM)*KI [2]	(kcat/KM)*KI [3]	Ki [4] [µM]	(kcat/KM)*KI ([4]; substrate saturation, H6-D196V)
C=C(OP(=O)(O)O)C(=O)O [PEP, phosphoenolpyruvate]	12				
O=C(O)CNCP(=O)(O)O [glyphosate, N-phosphonomethylglycine]		2254	3495	699	1860
